This note sets out measurements from US10246456B2, “IRAK4 inhibiting agents” (BIOGEN MA INC., priority 2014, dated 2019).

In general, IC50 refers to the point on the concentration scale where inhibition reaches its midpoint. Read a low IC50 as greater potency.

The target of the assay is IRAK4 (Homo sapiens (Human), UniProt Q9NWZ3). The assay can be described thus: IRAK-4 AlphaScreen biochemical kinase assay. The note with it: 1 nM IRAK4, 1 mM ATP, 3.5 h at RT. As for the experimental part:
The biochemical assay is in a AlphaScreen format. The kinase reaction is based on the IRAK-4 phosphorylation of a biotin labeled peptide. The phosphopeptide is incubated with anti-phosphothreonine antibody as well as streptavidin- and protein A-coated beads. Binding of the protein-A coated beads to the antibody and the streptavidin beads to the peptide, leads to an energy transfer from one bead to the other, ultimately producing a luminescent/fluorescent signal.
Background: Bead proximity is the source of the signal in Alpha formats.

IRAK4, sequence (Q9NWZ3 whole entry, species assumed): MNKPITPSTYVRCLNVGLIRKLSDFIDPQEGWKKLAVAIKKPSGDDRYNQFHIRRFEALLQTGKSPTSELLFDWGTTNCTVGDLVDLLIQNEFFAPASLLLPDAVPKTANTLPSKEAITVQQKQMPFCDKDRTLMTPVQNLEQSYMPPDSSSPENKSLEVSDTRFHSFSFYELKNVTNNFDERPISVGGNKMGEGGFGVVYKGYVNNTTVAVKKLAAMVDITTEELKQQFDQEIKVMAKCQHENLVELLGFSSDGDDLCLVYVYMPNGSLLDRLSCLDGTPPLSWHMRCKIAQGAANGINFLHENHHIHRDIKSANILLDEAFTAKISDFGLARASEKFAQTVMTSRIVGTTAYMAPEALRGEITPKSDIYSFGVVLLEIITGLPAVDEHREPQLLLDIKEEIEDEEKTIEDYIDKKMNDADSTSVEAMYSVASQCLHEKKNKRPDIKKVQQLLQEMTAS

Compound `Nc1cc(C(=O)O)cc(-c2ccc3cnn(-c4cccc(C(F)(F)F)n4)c3c2)c1` [Example 85, 3-amino-5-(1-(6-(trifluoromethyl)pyridin-2-yl)-1H-indazol-6-yl)benzoic Acid] returned an IC50 of less than 100 nM.

`N#CCNC(=O)c1cc(-c2ccc3cnn(-c4cccc(C(F)(F)F)n4)c3c2)cc(N)n1` [Example 87, 6-amino-N-(cyanomethyl)-4-(1-(6-(trifluoromethyl)pyridin-2-yl)-1H-indazol-6-yl)picolinamide] gave an IC50 of 100 to 1000 nM.

For `NCCNC(=O)c1cc(N)cc(-c2ccc3cnn(-c4cccc(C(F)(F)F)n4)c3c2)c1` [Example 88, 3-amino-N-(2-aminoethyl)-5-(1-(6-(trifluoromethyl)pyridin-2-yl)-1H-indazol-6-yl)benzamide], the 50% inhibitory concentration (IC50) is less than 100 nM.

`CC(N)c1cccc(-c2ccc3cnn(-c4cccc(C(F)(F)F)n4)c3c2)c1` (centres unmarked) [Example 89, 1-(3-(1-(6-(trifluoromethyl)pyridin-2-yl)-1H-indazol-6-yl)phenyl)ethanamine]: the IC50 was less than 100 nM.

Consider `CC(N)c1cncc(-c2ccc3cnn(-c4cccc(C(F)(F)F)n4)c3c2)c1` (centres unmarked) [Example 90, 1-(5-(1-(6-(trifluoromethyl)pyridin-2-yl)-1H-indazol-6-yl)pyridin-3-yl)ethanamine], for which the IC50 was less than 100 nM.

Compound `CC(N)c1cc(-c2ccc3cnn(-c4cccc(C(F)(F)F)n4)c3c2)ccn1` (centres unmarked) [Example 91, 1-(4-(1-(6-(trifluoromethyl)pyridin-2-yl)-1H-indazol-6-yl)pyridin-2-yl)ethanamine] had an IC50 of 100 to 1000 nM.

`N#Cc1cncc(-c2ccc3cnn(-c4cccc(C(F)(F)F)n4)c3c2)n1` [Example 92, 6-(1-(6-(trifluoromethyl)pyridin-2-yl)-1H-indazol-6-yl)pyrazine-2-carbonitrile] registered an IC50 of 1000 to 10000 nM.

Consider `NCc1cncc(-c2ccc3cnn(-c4cccc(C(F)(F)F)n4)c3c2)n1` [Example 93, (6-(1-(6-(trifluoromethyl)pyridin-2-yl)-1H-indazol-6-yl)pyrazin-2-yl)methanamine], for which the IC50 fell in the range of 1000 to 10000 nM.

Compound `N#Cc1nccc(-c2ccc3cnn(-c4cccc(C(F)(F)F)n4)c3c2)n1` [Example 94, 4-(1-(6-(trifluoromethyl)pyridin-2-yl)-1H-indazol-6-yl)pyrimidine-2-carbonitrile] came in with a half-maximal inhibitory concentration (IC50) of 1000 to 10000 nM.

In turn, `NCc1nccc(-c2ccc3cnn(-c4cccc(C(F)(F)F)n4)c3c2)n1` [Example 95, (4-(1-(6-(trifluoromethyl)pyridin-2-yl)-1H-indazol-6-yl)pyrimidin-2-yl)methanamine] gave an IC50 of 1000 to 10000 nM.

`Nc1cncc(-c2ccc3cnn(-c4cccc(C(F)(F)F)n4)c3c2)n1` [Example 96, 6-(1-(6-(trifluoromethyl)pyridin-2-yl)-1H-indazol-6-yl)pyrazin-2-amine] displayed an IC50 of 100 to 1000 nM.

`FC(F)(F)c1cccc(-n2ncc3ccc(-c4cccc(C5CCCN5)n4)cc32)n1` (centres unmarked) [Example 97, 6-(6-(pyrrolidin-2-yl)pyridin-2-yl)-1-(6-(trifluoromethyl)pyridin-2-yl)-1H-indazole] came in with an IC50 of 100 to 1000 nM.

For `CN1CCCC1c1cccc(-c2ccc3cnn(-c4cccc(C(F)(F)F)n4)c3c2)n1` (centres unmarked) [Example 98, 6-(6-(1-methylpyrrolidin-2-yl)pyridin-2-yl)-1-(6-(trifluoromethyl)pyridin-2-yl)-1H-indazole], the concentration for half-maximal inhibition (IC50) lay within 1000 to 10000 nM.

`Cc1cccc(-c2ncc3ccc(-c4cccc(C(C)N)n4)cn23)n1` (centres unmarked) [Example 99, 1-(6-(3-(6-methylpyridin-2-yl)imidazo[1,5-a]pyridin-6-yl)pyridin-2-yl)ethanamine] returned a 50% inhibitory concentration (IC50) of less than 100 nM.

`Cc1cccc(-n2ncc3c(N)cc(-c4cccc(C(C)N)n4)cc32)n1` (centres unmarked) [Example 100, 6-(6-(1-aminoethyl)pyridin-2-yl)-1-(6-methylpyridin-2-yl)-1H-indazol-4-amine]: the IC50 was less than 100 nM.

On to `CNc1cc(-c2cccc(C(C)N)n2)cc2c1cnn2-c1cccc(C)n1` (centres unmarked) [Example 101, 6-(6-(1-aminoethyl)pyridin-2-yl)-N-methyl-1-(6-methylpyridin-2-yl)-1H-indazol-4-amine], for which the IC50 was less than 100 nM.

As for `Cc1cccc(-n2ncc3c(N(C)C)cc(-c4cccc(C(C)N)n4)cc32)n1` (centres unmarked) [Example 102, 6-(6-(1-aminoethyl)pyridin-2-yl)-N,N-dimethyl-1-(6-methylpyridin-2-yl)-1H-indazol-4-amine], the 50% inhibitory concentration (IC50) is less than 100 nM.

With `CC(=O)Nc1cc(-c2cccc(C(C)N)n2)cc2c1cnn2-c1cccc(C)n1` (centres unmarked) [Example 103, N-(6-(6-(1-aminoethyl)pyridin-2-yl)-1-(6-methylpyridin-2-yl)-1H-indazol-4-yl)acetamide], the IC50 was in the range of 100 to 1000 nM.

Take `Cc1cccc(-n2ncc3c(CN)cc(-c4cccc(C(C)N)n4)cc32)n1` (centres unmarked) [Example 104, 1-(6-(4-(aminomethyl)-1-(6-methylpyridin-2-yl)-1H-indazol-6-yl)pyridin-2-yl)ethanamine]: the half-inhibitory concentration (IC50) lay within 1000 to 10000 nM.

The compound `CC(=O)NCc1cc(-c2cccc(C(C)N)n2)cc2c1cnn2-c1cccc(C)n1` (centres unmarked) [Example 105, N-((6-(6-(1-aminoethyl)pyridin-2-yl)-1-(6-methylpyridin-2-yl)-1H-indazol-4-yl)methyl)acetamide] gave a 50% inhibitory concentration (IC50) of 100 to 1000 nM.

Compound `Cc1cccc(-n2ncc3c(Cl)cc(-c4cccc(C(C)N)n4)cc32)n1` (centres unmarked) [Example 106, 1-(6-(4-chloro-1-(6-methylpyridin-2-yl)-1H-indazol-6-yl)pyridin-2-yl)ethanamine] displayed a 50% inhibitory concentration (IC50) of less than 100 nM.

`Cc1cccc(-n2ncc3c(C4CC4)cc(-c4cccc(C(C)N)n4)cc32)n1` (centres unmarked) [Example 107, 1-(6-(4-cyclopropyl-1-(6-methylpyridin-2-yl)-1H-indazol-6-yl)pyridin-2-yl)ethanamine] showed a concentration for half-maximal inhibition (IC50) of 100 to 1000 nM.

As for `C=C(C)c1cc(-c2cccc(C(C)N)n2)cc2c1cnn2-c1cccc(C)n1` (centres unmarked) [Example 108, 1-(6-(1-(6-methylpyridin-2-yl)-4-(prop-1-en-2-yl)-1H-indazol-6-yl)pyridin-2-yl)ethanamine], the IC50 was less than 100 nM.

As to `CCc1cc(-c2cccc(C(C)N)n2)cc2c1cnn2-c1cccc(C)n1` (centres unmarked) [Example 109, 1-(6-(4-ethyl-1-(6-methylpyridin-2-yl)-1H-indazol-6-yl)pyridin-2-yl)ethanamine], the IC50 lay within 100 to 1000 nM.

Take `Cc1cccc(-n2ncc3c(C(C)C)cc(-c4cccc(C(C)N)n4)cc32)n1` (centres unmarked) [Example 110, 1-(6-(4-isopropyl-1-(6-methylpyridin-2-yl)-1H-indazol-6-yl)pyridin-2-yl)ethanamine]: the IC50 was in the range of 100 to 1000 nM.

With `Cc1cccc(-n2ncc3c(C(F)(F)F)cc(-c4cccc(C(C)N)n4)cc32)n1` (centres unmarked) [Example 111, 1-(6-(1-(6-methylpyridin-2-yl)-4-(trifluoromethyl)-1H-indazol-6-yl)pyridin-2-yl)ethanamine], the half-maximal inhibitory concentration (IC50) is 100 to 1000 nM.

`COC(=O)c1cc(-c2cccc(C(C)N)n2)cc2c1cnn2-c1cccc(C)n1` (centres unmarked) [Example 112, methyl 6-(6-(1-aminoethyl)pyridin-2-yl)-1-(6-methylpyridin-2-yl)-1H-indazole-4-carboxylate] returned an IC50 of less than 100 nM.

`Cc1cccc(-n2ncc3c(C(=O)O)cc(-c4cccc(C(C)N)n4)cc32)n1` (centres unmarked) [Example 113, 6-(6-(1-aminoethyl)pyridin-2-yl)-1-(6-methylpyridin-2-yl)-1H-indazole-4-carboxylic acid] showed a concentration for half-maximal inhibition (IC50) of 100 to 1000 nM.

For `Cc1cccc(-n2ncc3c(CO)cc(-c4cccc(C(C)N)n4)cc32)n1` (centres unmarked) [Example 114, (6-(6-(1-aminoethyl)pyridin-2-yl)-1-(6-methylpyridin-2-yl)-1H-indazol-4-yl)methanol], the concentration for half-maximal inhibition (IC50) is less than 100 nM.

`CNC(=O)c1cc(-c2cccc(C(C)N)n2)cc2c1cnn2-c1cccc(C)n1` (centres unmarked) [Example 115, 6-(6-(1-aminoethyl)pyridin-2-yl)-N-methyl-1-(6-methylpyridin-2-yl)-1H-indazole-4-carboxamide] registered a half-inhibitory concentration (IC50) of less than 100 nM.

`CNC(C)c1cccc(-c2ccc3cnn(-c4cccc(C)n4)c3c2)n1` (centres unmarked) [Example 116, N-methyl-1-(6-(1-(6-methylpyridin-2-yl)-1H-indazol-6-yl)pyridin-2-yl)ethanamine] gave an IC50 of 100 to 1000 nM.

As for `CC(N)c1cccc(-c2ccc3cnn(-c4cccc(C5CC5)n4)c3c2)n1` (centres unmarked) [Example 119, 1-(6-(1-(6-cyclopropylpyridin-2-yl)-1H-indazol-6-yl)pyridin-2-yl)ethanamine], the IC50 was less than 100 nM.

In the case of `CCc1cccc(-n2ncc3ccc(-c4cccc(C(C)N)n4)cc32)n1` (centres unmarked) [Example 120, 1-(6-(1-(6-ethylpyridin-2-yl)-1H-indazol-6-yl)pyridin-2-yl)ethanamine], the half-maximal inhibitory concentration (IC50) is less than 100 nM.

For `CC(C)c1cccc(-n2ncc3ccc(-c4cccc(C(C)N)n4)cc32)n1` (centres unmarked) [Example 121, 1-(6-(1-(6-isopropylpyridin-2-yl)-1H-indazol-6-yl)pyridin-2-yl)ethanamine], the IC50 was less than 100 nM.

In the case of `CC(N)c1cccc(-c2ccc3cnn(-c4ccccn4)c3c2)n1` (centres unmarked) [Example 122, 1-(6-(1-(pyridin-2-yl)-1H-indazol-6-yl)pyridin-2-yl)ethanamine], the IC50 was in the range of 100 to 1000 nM.

`CC(N)c1cccc(-c2ccc3cnn(-c4cccc(CO)n4)c3c2)n1` (centres unmarked) [Example 123, (6-(6-(6-(1-aminoethyl)pyridin-2-yl)-1H-indazol-1-yl)pyridin-2-yl)methanol] had an IC50 of less than 100 nM.

`Cc1cc(-c2ccc3cnn(-c4cccc(C)n4)c3c2)nc(C(C)N)c1` (centres unmarked) [Example 124, 1-(4-methyl-6-(1-(6-methylpyridin-2-yl)-1H-indazol-6-yl)pyridin-2-yl)ethanamine] gave a half-maximal inhibitory concentration (IC50) of less than 100 nM.

As to `Cc1cccc(-n2ncc3ccc(-c4cc(C(F)(F)F)cc(C(C)N)n4)cc32)n1` (centres unmarked) [Example 125, 1-(6-(1-(6-methylpyridin-2-yl)-1H-indazol-6-yl)-4-(trifluoromethyl)pyridin-2-yl)ethanamine], the IC50 lay in the range of 100 to 1000 nM.
